Source: patent publication US11298314B2, “Injectable composition for localized fat reduction without pain, edema, and side effects, and method for preparing same” (AMI PHARM CO., LTD., priority 2017, dated 2022)

Test system: sole of the rat paws
Experiment: Measurement of skin lesion (erythema) on rat paw;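 note: grades − to ++++ mean no to extremely severe erythema versus before injection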
Format: in vivo, Sprague Dawley rats
Outline: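 Male Sprague Dawley rats (6 weeks, 170–200 g) received 0.1 ml test composition or PBS injected into the paw. Paw thickness measured by caliper before, immediately after, and 1 or 2 h post-injection; sole lesions photographed and graded 0–4.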

[1] = PPC single composition 1.25% (w/v)
[2] = PPC single composition 2.50% (w/v)
[3] = PPC single composition 5.00% (w/v)
[4] = PPC single composition 7.50% (w/v)
[5] = PPC single composition 10.0% (w/v)
[6] = PPC single composition 12.5% (w/v)
[7] = PPC single composition 15.0% (w/v)

1,2-diacyl-sn-glycero-3-phosphocholine [PPC]
−: grade of skin lesion (erythema), 1 hour after administration [1] | grade of skin lesion (erythema), 2 hours after administration [1] | grade of skin lesion (erythema), Immediately after administration [1] | grade of skin lesion (erythema), 1 hour after administration [2] | grade of skin lesion (erythema), 2 hours after administration [2] | grade of skin lesion (erythema), Immediately after administration [2] | grade of skin lesion (erythema), 1 hour after administration [3] | grade of skin lesion (erythema), 2 hours after administration [3] | grade of skin lesion (erythema), Immediately after administration [3] | grade of skin lesion (erythema), 1 hour after administration [4] | grade of skin lesion (erythema), 2 hours after administration [4] | grade of skin lesion (erythema), Immediately after administration [4] | grade of skin lesion (erythema), 1 hour after administration [5] | grade of skin lesion (erythema), 2 hours after administration [5] | grade of skin lesion (erythema), Immediately after administration [5] | grade of skin lesion (erythema), 1 hour after administration [6] | grade of skin lesion (erythema), 2 hours after administration [6] | grade of skin lesion (erythema), Immediately after administration [6] | grade of skin lesion (erythema), 1 hour after administration [7] | grade of skin lesion (erythema), 2 hours after administration [7] | grade of skin lesion (erythema), Immediately after administration [7]
